# Experimental data reported in publication PMC4438668, “Quantitative High-Throughput Identification of Drugs as Modulators of Human Constitutive Androstane Receptor” (Scientific Reports, 2015).
# pEC50, pIC50: −log10 of the molar value. Entries after “also recorded” stand apart in the source; their conditions may differ.
# Key:
# [1] = target: T1, hPXR (Homo sapiens, UniProt O75469); experiment: Transient hPXR luciferase assay in HepG2 cells (CYP2B6-2.2 kb reporter); format: cell-based; settings: HepG2, 24 h, in the presence or absence of rifampicin (10 μM)
# T1 construct: expressed in transfected cells; host or cells: HepG2 (transient transfection)
# T1 sequence (O75469 1-434): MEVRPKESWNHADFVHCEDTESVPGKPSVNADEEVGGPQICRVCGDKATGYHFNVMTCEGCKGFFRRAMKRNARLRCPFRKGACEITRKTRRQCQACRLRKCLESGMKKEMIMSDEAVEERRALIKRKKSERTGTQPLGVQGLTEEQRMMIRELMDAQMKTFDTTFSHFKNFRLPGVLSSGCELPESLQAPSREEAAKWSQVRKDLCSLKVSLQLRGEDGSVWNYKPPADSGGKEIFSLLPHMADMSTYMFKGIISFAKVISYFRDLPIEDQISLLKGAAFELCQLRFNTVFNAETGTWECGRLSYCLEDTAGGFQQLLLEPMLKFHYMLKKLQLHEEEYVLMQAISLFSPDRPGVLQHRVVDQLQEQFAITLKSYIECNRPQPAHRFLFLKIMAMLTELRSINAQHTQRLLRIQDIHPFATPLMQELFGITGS
# Procedure: HepG2 cells cultured in a 24-well plate were co-transfected with the CYP2B6-2.2 kb reporter and hPXR expression vectors using a Lipofectamine® 2000 Transfection Kit (Life Technologies) following the manufacturer’s instruction. […] Cell lysates were assayed for firefly luciferase activities normalized against the activities of co-transfected Renilla luciferase using a Dual-Luciferase Kit (Promega). Data were represented as mean±SD of three individual transfections.
# [2] = test system: CYP3A4; experiment: CYP3A4 mRNA expression in HPH (real-time PCR); format: cell-based, human; settings: HPH, 24 h, vs vehicle control (0.1% DMSO)
# Procedure: (§1) HPH were isolated from human liver specimens by a modification of the two-step collagenase digestion method as described previously[43] or obtained from Bioreclamation In Vitro Technologies (Baltimore, MD). Fresh HPH were seeded at 1.5 × 10^6, 7.5 × 10^5 or 4.7 × 10^4 cells/well in 6-well, 12-well, or 96-well collagen coated plates, respectively. Hepatocytes were cultured for 36 h at 37 °C before treatment with specified compounds for another 24 or 72 h for detection of mRNA or protein expression in the 6-well and 12-well plates.
# (§2) Total RNA was isolated from treated hepatocytes using the TRIzol® reagent and reverse transcribed using a High Capacity cDNA Archive Kit (Applied Biosystems, Foster City, CA) following the manufacturers’ instructions. CYP2B6 and CYP3A4 mRNA expression were normalized against that of GAPDH. Real-time PCR assays were performed in 96-well optical plates on an ABI Prism 7000 Sequence Detection System with SYBR Green PCR Master Mix. […] Induction values were calculated using the equation: Fold = 2ΔΔCt, where ΔCt represents the differences in cycle threshold numbers between CYP2B6 or CYP3A4 and GAPDH, and ΔΔCt represents the relative change in these differences between control and treatment groups.
# [3] = test system: CAR, CYP2B6, or CYP3A4; settings: previously known; reference not given; cited from earlier work
# [4] = test system: HepG2-CYP2B6-hCAR cells; experiment: Cell viability assay (CellTiter-Glo ATP quantitation); format: cell-based, human; parameters: key to Cytotoxicity (activity call): Inactive: considered inactive if efficacy is less than 30%; settings: 24 h
# Procedure: The potential cytotoxicity of the NPC compounds in HepG2-CYP2B6-hCAR cells was measured using a luciferase-coupled ATP quantitation assay (CellTiter-Glo viability assay, Promega). The change of intracellular ATP content indicates the number of metabolically competent cells. The cells were seeded at 2,500 cells/5 μl in 1536-well plates and were exposed to each test compound at concentrations and treatment duration as previously mentioned. The assay plates were incubated for 24 h at 37 °C, followed by the addition of 4 μl/well of CellTiter-Glo reagent. After 30 min incubation at RT, the luminescence intensity of the plates was measured using a ViewLux plate reader.
# [5] = target: T2, human CAR (hCAR) (Homo sapiens, UniProt Q14994); experiment: hCAR luciferase reporter qHTS, antagonist mode (HepG2-CYP2B6-hCAR cells, CITCO co-treatment); settings: for pIC50 / Follow-up Confirmation Efficacy / Primary Screen Efficacy: antagonist mode; for Follow-up Confirmation Efficacy / Primary Screen Efficacy: relative to PK11195 (100%); for Identified as hCAR antagonist/deactivator in the qHTS: primary qHTS of 2816 NPC compounds;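 for all read-outs here: stable HepG2 line carrying hCAR plus a CYP2B6 promoter (PBREM/XREM) luciferase reporter, 1536-well format, 24 h compound exposure at 37 °C, then luminescence read with ONE-Glo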
# T2 sequence (Q14994 1-348 isoform Q14994-2): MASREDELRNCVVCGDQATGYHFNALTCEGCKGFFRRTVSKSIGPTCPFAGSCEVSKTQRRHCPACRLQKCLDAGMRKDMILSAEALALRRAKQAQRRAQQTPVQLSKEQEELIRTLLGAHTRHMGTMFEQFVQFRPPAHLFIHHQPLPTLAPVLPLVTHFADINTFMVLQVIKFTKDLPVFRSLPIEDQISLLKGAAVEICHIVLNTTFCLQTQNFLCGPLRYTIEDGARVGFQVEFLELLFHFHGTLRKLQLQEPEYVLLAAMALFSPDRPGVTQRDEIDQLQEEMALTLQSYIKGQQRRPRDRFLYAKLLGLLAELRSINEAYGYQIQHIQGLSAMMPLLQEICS
# Procedure: The pEF6/V5-hCAR expression plasmid and the pGL4.17[luc2/Neo]-CYP2B6-2.2kb construct containing both the PBREM and XREM[40], were co-transfected in HepG2 cells using lipofectamine 2000 reagents (Life Technologies) following the manufacturer’s instruction. Dulbecco’s Modified Eagle Medium (DMEM) containing 10% FBS, 100 U/ml penicillin, 100 μg/ml streptomycin, G418 (0.6-1 mg/ml) and blasticidin (10 μg/ml) were used for the selection of colonies containing a mixed population of drug resistant cells. Subsequently, these cells were transferred to collagen-coated 48-well plates and continually cultured in the same media. Single colony containing both plasmids was selected and functionally verified.
# The generated stable cell line, namely HepG2-CYP2B6-hCAR, was used to identify hCAR modulators in a qHTS platform. Assays were run in both agonist and antagonist modes. In brief, HepG2-CYP2B6-hCAR cells were dispensed at 2,500 cells/well in 1,536-well plates (Greiner Bio-One North America, Monroe, NC) using a Multidrop Combi (Thermo Fisher Scientific Inc., Waltham, MA). […] The assays were incubated at 37 °C for 24 h followed by the addition of 4 μl of the ONE-Glo luciferase reagent (Promega, Madision, WI). The assay plates were incubated at room temperature for 20 min and luminescence intensity was quantified using a ViewLux plate reader (PerkinElmer, Shelton, CT).
# (§3) Concentration-response titration points for each compound were then fitted to the Hill equation, yielding half-maximal inhibition (IC50) or activation (EC50) and maximal response (efficacy) values. Compounds from the primary qHTS screen were classified into four major curve classes according to quality of curve fit, potency and efficacy. Class 1.1, 1.2, 2.1, and 2.2 curves were high-quality and thus high-confidence concentration-response curves (CRCs). […] All other curve classes (including those curves with single point activity) were deemed inconclusive. […] Follow-up studies were performed using a new aliquot of samples to confirm sample integrity and assay reproducibility.
# All of these compounds were retested in both HepG2-CYP2B6-hCAR and cell viability assays.
# [6] = target: T2, human CAR (hCAR); experiment: hCAR luciferase reporter qHTS, agonist mode (HepG2-CYP2B6-hCAR cells, PK11195 co-treatment); settings: for Identified as hCAR agonist in the qHTS: primary qHTS of 2816 NPC compounds; for pEC50 / Follow-up Confirmation Efficacy / Primary Screen Efficacy: agonist mode; for Follow-up Confirmation Efficacy: relative to CITCO (100%); for Primary Screen Efficacy: relative to CITCO Emax (100%)
# Procedure: The generated stable cell line, namely HepG2-CYP2B6-hCAR, was used to identify hCAR modulators in a qHTS platform. Assays were run in both agonist and antagonist modes. In brief, HepG2-CYP2B6-hCAR cells were dispensed at 2,500 cells/well in 1,536-well plates (Greiner Bio-One North America, Monroe, NC) using a Multidrop Combi (Thermo Fisher Scientific Inc., Waltham, MA). […] Each NPC compound was tested at 8 concentrations ranging from 0.6 nM to 38.3 μM. The assays were incubated at 37 °C for 24 h followed by the addition of 4 μl of the ONE-Glo luciferase reagent (Promega, Madision, WI). The assay plates were incubated at room temperature for 20 min and luminescence intensity was quantified using a ViewLux plate reader (PerkinElmer, Shelton, CT).
# as §3
# These compounds were prepared in 1536-well compound plates at 11-point 3-fold dilution titrations in DMSO, with final concentrations ranging from 0.6 nM to 38.3 μM. All of these compounds were retested in both HepG2-CYP2B6-hCAR and cell viability assays.
# [7] = test system: CYP2B6; experiment: CYP2B6 mRNA expression in HPH (real-time PCR); settings: HPH
# Procedure: as §1, §2
# [8] = target: T3, EYFP-hCAR (Homo sapiens, UniProt Q14994); experiment: Nuclear translocation of Ad/EYFP-hCAR in human primary hepatocytes; format: cell-based; settings: HPH; listed as ACFB
# T3 construct: expressed in transfected cells; host or cells: human primary hepatocytes infected with Ad/EYFP-hCAR
# T3 sequence (Q14994 1-348 isoform Q14994-2): T2 sequence (Q14994 1-348 isoform Q14994-2)
# Procedure: A recombinant adenovirus expressing enhanced yellow fluorescent protein-tagged hCAR (Ad/EYFP-hCAR) was generated as described previously. Hepatocytes cultured in 96-well collagen-coated plates in serum free Williams’ E medium were infected with Ad/EFYP-hCAR (1 μl/well) for 12 h before treatment with the vehicle control, DMSO (0.1%), PB (1 mM), and selected compounds for another 8 h. Subcellular localization of hCAR was visualized using a Nikon (Tokyo, Japan) C1-LU3 instrument based on an inverted Nikon Eclipse TE2000 microscope.
# [9] = Follow-up Confirmation Potency (IC50), follow-up cherry-pick, 11-point titration
# [10] = Primary Screen Potency (IC50), primary qHTS, 0.1 μM CITCO, 24 h
# [11] = Follow-up Confirmation Potency (EC50), follow-up cherry-pick, 11-point titration
# [12] = Primary Screen Potency (EC50), primary qHTS, 2.5 μM PK11195, 24 h
structure (smiles),measurement,setting,value
Nc1ncnc2c1ncn2CCOCP(=O)(O)O [Adefovir],Effect on basal and RIF-induced PXR activity,[1],no effects on either basal or RIF-induced hPXR activation
same,Effect on CYP3A4 mRNA expression,[2],negligible effect
same,"Known modulator of CAR, CYP2B6, or CYP3A4?",[3],CYP3A4 inhibitor
same,Cytotoxicity (activity call),[4],Inactive
same,pIC50,[5]; [9],6.11
same,pIC50,[5]; [10],6.12
same,Follow-up Confirmation Efficacy,[5]; follow-up cherry-pick,-87%
same,Primary Screen Efficacy,[5]; primary qHTS,-102%
Cc1cccc(N(C)C(=S)Oc2ccc3ccccc3c2)c1 [tolnaftate],Identified as hCAR agonist in the qHTS,[6],agonists identified
C[C@H]1O[C@@H](O[C@H]2[C@@H](O)C[C@H](O[C@H]3[C@@H](O)C[C@H](O[C@H]4CC[C@@]5(C)[C@H](CC[C@@H]6[C@@H]5CC[C@]5(C)[C@@H](C7=CC(=O)OC7)CC[C@]65O)C4)O[C@@H]3C)O[C@@H]2C)C[C@H](O)[C@@H]1O [Digitoxin],Cytotoxicity (activity call),[4],Inactive
same,pIC50,[5]; [9],6.54
same,pIC50,[5]; [10],7.10
same,Follow-up Confirmation Efficacy,[5]; follow-up cherry-pick,-98%
same,Primary Screen Efficacy,[5]; primary qHTS,-76%
Cc1c(O)cccc1C(=O)N[C@@H](CSc1ccccc1)[C@H](O)CN1C[C@H]2CCCC[C@H]2C[C@H]1C(=O)NC(C)(C)C [Nelfinavir],Effect on basal and RIF-induced PXR activity,[1],induced hPXR activation to an extent closer to that of RIF
same,Effect on CYP3A4 mRNA expression,[2],negligible effect
same,Cytotoxicity (activity call),[4],Inactive
same,pIC50,[5]; [9],4.96
same,pIC50,[5]; [10],5.02
same,Follow-up Confirmation Efficacy,[5]; follow-up cherry-pick,-101%
same,Primary Screen Efficacy,[5]; primary qHTS,-88%
Clc1ccccc1C(c1ccccc1)(c1ccccc1)n1ccnc1 [clotrimazole],Identified as hCAR antagonist/deactivator in the qHTS,[5],recognized in the current study
O=C(Nc1ccc(Cl)cc1)Nc1ccc(Cl)c(Cl)c1 [triclocarban],Identified as hCAR agonist in the qHTS,[6],agonists identified
Nc1ccc(Cl)cc1C(=O)c1ccccc1F [2-Amino-5-chloro-2’-fluorobenzophenone],pEC50,[6]; [11],4.81
same,pEC50,[6]; [12],5.47
same,Follow-up Confirmation Efficacy,[6]; follow-up cherry-pick,67%
same,Primary Screen Efficacy,[6]; primary qHTS,60%
same,Induction of hCAR target genes,"[7]; target genes CYP2B6 and CYP3A4, listed as ACFB",negligible induction; also recorded: nor induced the expression of its target genes
same,hCAR nuclear translocation (in words),[8],didn’t translocate hCAR; also recorded: neither translocated hCAR
CCO[C@H]1O[C@@H]2O[C@@]3(C)CC[C@H]4[C@H](C)CC[C@@H]([C@H]1C)[C@@]24OO3 [Artemotil],Effect on CYP3A4 mRNA expression,[2],markedly enhanced
same,pEC50,[6]; [11],5.30
same,pEC50,[6]; [12],5.68
same,Follow-up Confirmation Efficacy,[6]; follow-up cherry-pick,71%
same,Primary Screen Efficacy,[6]; primary qHTS,33%
same,Effect on CYP2B6 mRNA expression,"[7]; 24 h, vs vehicle control (0.1% DMSO)",significantly induced
same,"Known modulator of CAR, CYP2B6, or CYP3A4?",[3],Activates CAR and Induces CYP2B6
O=C1OC(c2ccc(O)cc2)(c2ccc(O)cc2)c2ccccc21 [phenolphthalein],Identified as hCAR antagonist/deactivator in the qHTS,[5],recognized in the current study
CC(COc1ccccc1)N(CCCl)Cc1ccccc1 (stereo not drawn) [Phenoxybenzamine],pEC50,[6]; [11],4.92
same,pEC50,[6]; [12],5.02
same,Follow-up Confirmation Efficacy,[6]; follow-up cherry-pick,49%
same,Primary Screen Efficacy,[6]; primary qHTS,57%
CO[C@@]12[C@H](COC(N)=O)C3=C(C(=O)C(C)=C(N)C3=O)N1C[C@@H]1N[C@@H]12 [Mitomycin C],"Known modulator of CAR, CYP2B6, or CYP3A4?",[3],PXR deactivator
same,Cytotoxicity (activity call),[4],Inactive
same,pIC50,[5]; [9],6.12
same,pIC50,[5]; [10],6.37
same,Follow-up Confirmation Efficacy,[5]; follow-up cherry-pick,-110%
same,Primary Screen Efficacy,[5]; primary qHTS,-91%
same,Identified as hCAR antagonist/deactivator in the qHTS,[5],antagonist of hCAR
